# Source: patent US20160242416A1, “FUNGICIDAL ISOXAZOLINE CARBINOLS” (E I DU PONT DE NEMOURS AND COMPANY, priority 2015, published 2016)
# How the values were obtained:
# Botrytis cinerea = assay: Test B: gray mold, preventive spray on tomato seedlings; conditions: 10 ppm; gray mold on tomato; 100 = 100% disease control, 0 = no control
# [1] = system: Puccinia recondita f sp. tritici; assay: Test F: wheat leaf rust, preventive spray on wheat seedlings; conditions: 10 ppm; wheat leaf rust; 100 = 100% disease control, 0 = no control
# From the text: General protocol for preparing test solutions for Tests A-G: the test compounds were first dissolved in acetone in an amount equal to 3% of the final volume and then suspended at the desired concentration (in ppm) in acetone and purified water (50/50 mix by volume) containing 250 ppm of the surfactant PEG400 (polyhydric alcohol esters). The resulting test suspensions were then used in Tests A-G. Compounds were sprayed at a concentration of 50 ppm (*) or 10 ppm to the point of run-off on the test plants, the equivalent of a rate of 200 g/ha or 40 g/ha, respectively.
# The test solution was sprayed to the point of run-off on wheat seedlings. The following day the seedlings were inoculated with a spore suspension of Puccinia recondita f sp. tritici; (the causal agent of wheat leaf rust) and incubated in a saturated atmosphere at 20° C. for 24 h, and then moved to a growth chamber at 20° C. for 6 days, after which time visual disease ratings were made.
# A dash (-) indicates no test results. Compounds with an asterisks (*) were applied at a concentration of 50 ppm, otherwise test solutions were applied at 10 ppm.
# Zymoseptoria tritici = assay: Test E: wheat leaf blotch, preventive spray on wheat seedlings; conditions: 10 ppm; wheat leaf blotch; 100 = 100% disease control, 0 = no control
# Stagonospora nodorum = assay: Test D: wheat glume blotch, preventive spray on wheat seedlings; conditions: 10 ppm; wheat glume blotch; 100 = 100% disease control, 0 = no control
# [2] = system: Erysiphe graminis f sp. tritici; assay: Test G: wheat powdery mildew, preventive spray on wheat seedlings; conditions: 10 ppm; wheat powdery mildew; 100 = 100% disease control, 0 = no control
SMILES,Test B rating (% disease control) (Botrytis cinerea),Test F rating (% disease control) [1],Test E rating (% disease control) (Zymoseptoria tritici),Test D rating (% disease control) (Stagonospora nodorum),Test G rating (% disease control) [2]
"OC(Cn1cncn1)(C1=NOC(c2ccc(Cl)cc2)C1)c1ccc(F)cc1 (single isomer, unassigned) [Compound 161]",0%,28%,0%,0%,94%
"OC(Cn1cncn1)(C1=NOC(COc2ccc(F)cc2)C1)c1ccc(Cl)cc1 (single isomer, unassigned) [Compound 162]",0%,100%,76%,96%,100%
"OC(Cn1cncn1)(C1=NOC(COc2ccc(F)cc2)C1)c1ccc(Cl)cc1 (single isomer, unassigned) [Compound 163]",0%,99%,0%,0%,86%
"OC(Cn1cncn1)(C1=NOC(COc2ccc(Cl)cn2)C1)c1ccc(Cl)cc1 (single isomer, unassigned) [Compound 164]",0%,100%,96%,95%,100%
"OC(Cn1cncn1)(C1=NOC(COc2ccc(Cl)cn2)C1)c1ccc(Cl)cc1 (single isomer, unassigned) [Compound 165]",0%,99%,5%,72%,100%
"CC(C)(C)C(O)(Cn1cncn1)C1=NOC(c2cnccn2)C1 (single isomer, unassigned) [Compound 168]",11%,0%,3%,0%,35%
"CC(C)(C)C(O)(Cn1cncn1)C1=NOC(c2cnccn2)C1 (single isomer, unassigned) [Compound 169]",0%,0%,4%,9%,0%
"CC(C)(C)CC(O)(Cn1cncn1)C1=NOC(COc2ccc(Br)cc2)C1 (single isomer, unassigned) [Compound 170]",0%,100%,68%,99%,99%
"CC(C)(C)CC(O)(Cn1cncn1)C1=NOC(COc2ccc(Br)cc2)C1 (single isomer, unassigned) [Compound 171]",0%,100%,0%,63%,94%
"CC(C)(C)CC(O)(Cn1cncn1)C1=NOC(COc2ccc(Cl)cc2)C1 (single isomer, unassigned) [Compound 172]",0%,100%,4%,100%,99%
"CC(C)(C)CC(O)(Cn1cncn1)C1=NOC(COc2ccc(Cl)cc2)C1 (single isomer, unassigned) [Compound 173]",0%,100%,6%,63%,97%
"OC(Cn1cncn1)(C1=NOC(c2cccc(Oc3ccccc3)c2)C1)c1ccc(Cl)cc1 (single isomer, unassigned) [Compound 176]",0%,100%,2%,82%,100%
"OC(Cn1cncn1)(C1=NOC(c2cccc(Oc3ccccc3)c2)C1)c1ccc(Cl)cc1 (single isomer, unassigned) [Compound 177]",0%,0%,0%,51%,89%
"OC(Cn1cncn1)(C1=NOC(c2ccc(Br)cc2)C1)c1ccc(Cl)cc1 (single isomer, unassigned) [Compound 178]",0%,100%,91%,99%,100%
"OC(Cn1cncn1)(C1=NOC(c2ccc(Br)cc2)C1)c1ccc(Cl)cc1 (single isomer, unassigned) [Compound 179]",0%,100%,0%,0%,91%
"OC(Cn1cncn1)(C1=NOC(c2ccc(Cl)cc2)C1)c1ccc(Br)cc1 (single isomer, unassigned) [Compound 180]",0%,100%,1%,99%,100%
"OC(Cn1cncn1)(C1=NOC(c2ccc(Cl)cc2)C1)c1ccc(Br)cc1 (single isomer, unassigned) [Compound 181]",0%,45%,0%,0%,69%
"CC(C)(C)C(O)(Cn1cncn1)C1=NOC(COc2ccc(Br)cc2)C1 (single isomer, unassigned) [Compound 182]",99%,100%,96%,99%,100%
"CC(C)(C)C(O)(Cn1cncn1)C1=NOC(COc2ccc(Br)cc2)C1 (single isomer, unassigned) [Compound 183]",24%,100%,35%,99%,100%
"CC(C)(C)C(O)(Cn1cncn1)C1=NOC(COc2ccc(I)cc2)C1 (single isomer, unassigned) [Compound 184]",44%,100%,94%,100%,100%
"CC(C)(C)C(O)(Cn1cncn1)C1=NOC(COc2ccc(I)cc2)C1 (single isomer, unassigned) [Compound 185]",0%,100%,0%,100%,99%
"CCC(C)(C)C(O)(Cn1cncn1)C1=NOC(COc2ccc(Cl)cc2)C1 (single isomer, unassigned) [Compound 186]",99%,100%,66%,100%,100%
"CCC(C)(C)C(O)(Cn1cncn1)C1=NOC(COc2ccc(Cl)cc2)C1 (single isomer, unassigned) [Compound 193]",9%,99%,22%,93%,97%
"OC(Cn1cncn1)(C1=NOC(Cn2ccc(C(F)(F)F)n2)C1)c1ccc(Cl)cc1 (single isomer, unassigned) [Compound 194]",0%,100%,0%,11%,99%
"OC(Cn1cncn1)(C1=NOC(Cn2ccc(C(F)(F)F)n2)C1)c1ccc(Cl)cc1 (single isomer, unassigned) [Compound 195]",0%,99%,0%,0%,100%
"OC(Cn1cncn1)(C1=NOC(c2ccc(Cl)cc2)C1)C1CCCCC1 (single isomer, unassigned) [Compound 196]",0%,100%,12%,99%,100%
"OC(Cn1cncn1)(C1=NOC(c2ccc(Cl)cc2)C1)C1CCCCC1 (single isomer, unassigned) [Compound 197]",11%,100%,0%,92%,98%
"OC(Cn1cncn1)(C1=NOC(Cc2ccc(F)cc2)C1)c1ccc(Cl)cc1 (single isomer, unassigned) [Compound 198]",0%,100%,0%,81%,100%
"OC(Cn1cncn1)(C1=NOC(Cc2ccc(Cl)cc2)C1)c1ccc(Cl)cc1 (single isomer, unassigned) [Compound 199]",0%,100%,0%,86%,100%
